Legend:
[1] = 101 kPa, Liquid
[2] = xn = mol fraction of the nth substance listed; details: 101 kPa, Liquid

C1CCCC1 [cyclopentane]
[1]
Details	mass density [kg/m3]
298.15 K	733.634
308.15 K	726.571

CCCCCCCO [heptan-1-ol] + C1CCCC1
[2], x2 = 0
Details	mass density [kg/m3]
298.15 K	818.813
308.15 K	811.73

CCCCCCCO [heptan-1-ol]
[1]
Details	mass density [kg/m3]
298.15 K	818.813
308.15 K	811.73

CCCO [propan-1-ol]
[1]
Details	mass density [kg/m3]
298.15 K	799.813
308.15 K	791.692

C1CCCC1 [cyclopentane] + CCCCCO
mass density [kg/m3], [2]
Details	298.15 K	308.15 K
x1 = 0.0155	810.22	802.763
x1 = 0.1886	799.34	791.417
x1 = 0.2742	793.439	785.673
x1 = 0.3746	786.395	778.336
x1 = 0.3884	785.467	777.389
x1 = 0.4798	779.082	770.553
x1 = 0.5738	771.559	763.458
x1 = 0.6868	762.096	754.298
x1 = 0.7543	756.486	748.638
x1 = 0.8131	751.07	743.306
x1 = 0.9079	742.377	735.151
x1 = 1	733.634	726.571

CCCO [propan-1-ol] + C1CCCC1
[2], x2 = 0
Details	mass density [kg/m3]
298.15 K	799.813
308.15 K	791.692

C1CCCC1 [cyclopentane] + CCCO
mass density [kg/m3], [2]
Details	298.15 K	308.15 K
x1 = 0.0553	795.275	786.98
x1 = 0.1627	786.754	778.045
x1 = 0.2341	781.37	772.538
x1 = 0.3137	775.778	766.718
x1 = 0.4691	764.862	755.363
x1 = 0.5666	758.623	748.897
x1 = 0.6338	754.486	744.566
x1 = 0.7688	746.451	737.144
x1 = 0.8446	742.132	733.21
x1 = 0.9167	738.181	729.51
x1 = 1	733.634	726.571

C1CCCC1 [cyclopentane] + CCCCCCCO
mass density [kg/m3], [2]
Details	298.15 K	308.15 K
x1 = 0.0632	815.837	808.629
x1 = 0.1965	808.334	800.856
x1 = 0.3173	800.287	792.895
x1 = 0.4244	793.064	785.675
x1 = 0.4606	790.282	782.889
x1 = 0.5084	786.531	779.091
x1 = 0.6664	772.628	764.753
x1 = 0.7675	762.185	754.805
x1 = 0.8534	752.769	745.466
x1 = 0.9644	739.018	731.663
x1 = 1	733.634	726.571

CCCCCO [pentan-1-ol]
[1]
Details	mass density [kg/m3]
298.15 K	811.037
308.15 K	803.683

CCCCCO [pentan-1-ol] + C1CCCC1
[2], x2 = 0
Details	mass density [kg/m3]
298.15 K	811.037
308.15 K	803.683

Reference: the NIST ThermoML archive (doi:10.1021/je800831d)
